Data reported in article PMC7834886 (Life Sciences, 2020).

Columns and labels:
ACE2 = ACE2 (Homo sapiens, UniProt Q9BYF1); format: binding; settings: mobile phase 10 mM Na2HPO4 / phosphate-buffer saline pH 7.4; flow rate 0.2 mL/min; 37 °C; UV 254 nm
[1] = system: ACE2^hi cells (ACE2 high-expressing HEK293T cells); test: Cytotoxicity assay; format: cell-based; settings: for effect on activity (survival) of ACE2^hi cells: at concentrations below 100 μM; for cytotoxicity to cells: at 20 μM
[2] = preclinical and clinical studies; cited from earlier work

Chain of ACE2 (Q9BYF1 18-805): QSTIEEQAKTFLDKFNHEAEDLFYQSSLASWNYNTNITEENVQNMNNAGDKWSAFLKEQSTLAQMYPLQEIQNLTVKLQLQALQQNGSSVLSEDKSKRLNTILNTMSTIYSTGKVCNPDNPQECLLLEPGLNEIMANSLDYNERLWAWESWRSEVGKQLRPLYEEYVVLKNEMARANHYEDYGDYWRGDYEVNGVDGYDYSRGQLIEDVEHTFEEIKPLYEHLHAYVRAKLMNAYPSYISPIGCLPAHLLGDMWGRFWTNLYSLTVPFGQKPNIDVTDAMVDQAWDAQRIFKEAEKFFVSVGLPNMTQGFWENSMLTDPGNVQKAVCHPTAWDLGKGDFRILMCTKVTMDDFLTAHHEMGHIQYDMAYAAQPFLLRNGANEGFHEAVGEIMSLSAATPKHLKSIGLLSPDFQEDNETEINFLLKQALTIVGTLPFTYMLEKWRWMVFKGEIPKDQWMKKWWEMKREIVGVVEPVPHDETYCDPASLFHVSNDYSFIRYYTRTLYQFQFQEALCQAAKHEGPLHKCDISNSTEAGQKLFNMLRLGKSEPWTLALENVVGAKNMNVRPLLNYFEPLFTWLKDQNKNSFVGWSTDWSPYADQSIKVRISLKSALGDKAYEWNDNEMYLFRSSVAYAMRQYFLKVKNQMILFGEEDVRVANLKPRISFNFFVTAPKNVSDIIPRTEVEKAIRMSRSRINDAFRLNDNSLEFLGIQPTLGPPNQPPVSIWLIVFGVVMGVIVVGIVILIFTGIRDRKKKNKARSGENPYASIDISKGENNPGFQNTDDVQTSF

| SMILES | retention time (tR) on ACE2-CMC column (ACE2) | effect on activity (survival) of ACE2^hi cells ([1]; CCK-8, 24 h) | cytotoxicity to cells [1] | difference in cell viability versus control group ([1]; CCK-8, 24 h, at concentrations below 50 μM) | concentration in the lungs relative to plasma [2] |
| --- | --- | --- | --- | --- | --- |
| CCN(CC)CCNC(=O)c1cc(S(C)(=O)=O)ccc1OC [Tia, tiapride] | 7.789 min | no significant effect | no cytotoxicity | – | – |
| O=C1CCc2ccc(OCCCCN3CCN(c4cccc(Cl)c4Cl)CC3)cc2N1 [Ari, aripiprazole] | – | no significant effect | no cytotoxicity | – | – |
| OCCOCCN1CCN(C2=Nc3ccccc3Sc3ccccc32)CC1 [Que, quetiapine] | – | – | no cytotoxicity | no significant difference | – |
| CSc1ccc2c(c1)N(CCC1CCCCN1C)c1ccccc1S2 (stereo not drawn) [Thi, thioridazine] | 51.604 min | – | no cytotoxicity | – | – |
| CN(C)CCCN1c2ccccc2Sc2ccc(Cl)cc21 [Chl, Chlorpromazine] | – | – | no cytotoxicity | – | 20–200 times higher than in plasma |
| CN1CCN(CCCN2c3ccccc3Sc3ccc(C(F)(F)F)cc32)CC1 [Tri, Trifluoperazine] | – | – | no cytotoxicity | – | – |
